Tested on: T1, tubulin (β-tubulin, colchicine binding site)
T1 construct: gene TUBB; with α-tubulin
Experiment: in vitro tubulin polymerisation assay; supported by EBI competition assay (β-tubulin adduct) in PC3 cells
Type: biochemical

Work on COc1ccc(CN(C(=O)CN2C(=O)CCCC2=O)c2cc(OC)c(OC)c(OC)c2)cc1 [17a, 2–(2,6-Dioxopiperidin-1-yl)-N-(4-methoxybenzyl)-N-(3,4,5-trimethoxyphenyl) acetamide] yielded an IC50 of 2030 nM.
